Assay results from patent publication US20250059179A1, “Heterocyclic Compounds and Methods of Use” (AMGEN INC., priority 2021, published 2025).
pIC50: −log10 of the molar value. Like-named read-outs stand apart in the source and are kept apart here.

What was measured:
[1] = target: His-tagged KRAS G12D protein (Homo sapiens, UniProt P01116, G12D); assay: KRAS G12D TR-FRET Assay; assay type: binding; settings: biotinylated KRPep-2d substrate, 10 μM GDP;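 note: europium anti-His antibody paired with streptavidin-d2 as FRET partners, initial 30 min incubation, then peptide 1 h and detection reagents 1 h, all at room temperature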
Sequence of His-tagged KRAS G12D protein (P01116 1-188 isoform P01116-2 G12D): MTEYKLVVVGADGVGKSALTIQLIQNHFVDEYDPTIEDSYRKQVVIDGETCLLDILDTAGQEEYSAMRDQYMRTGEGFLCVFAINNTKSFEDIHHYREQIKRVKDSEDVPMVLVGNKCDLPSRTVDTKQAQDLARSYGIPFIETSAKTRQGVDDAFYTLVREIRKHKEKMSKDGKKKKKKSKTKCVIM

[2] = tested on: Phosphorylation of ERK1/2 in A-427 cells; assay: Phospho-ERK1/2 MSD Assay; assay type: cell-based; settings: 2 h compound treatment, read-out: pERK (A427 cells) IC50
Protocol: A-427 (ATCC® HTB-53™) cells were cultured in RPMI 1640 Medium (ThermoFisher Scientific 11875093) containing 10% fetal bovine serum (ThermoFisher Scientific 16000044) and 1× penicillin-streptomycin-glutamine (ThermoFisher Scientific 10378016). Sixteen hours prior to compound treatment, A-427 cells were seeded in 96-well cell culture plates at a density of 25,000 cells/well and incubated at 37° C., 5% CO2. A compound dose-response titration was diluted in growth media, added to appropriate wells of a cell culture plate, and then incubated at 37° C., 5% CO2 for 2 h. Following compound treatment, cells were washed with ice-cold Dulbecco's phosphate-buffered saline, no Ca^2+ or Mg^2+ (ThermoFisher Scientific 14190144), and then lysed in RIPA buffer (50 mM Tris-HCl pH 7.5, 1% Igepal, 0.5% sodium deoxycholate, 150 mM NaCl, and 0.5% sodium dodecyl sulfate) containing protease inhibitors (Roche 4693132001) and phosphatase inhibitors (Roche 4906837001). Phosphorylation of ERK1/2 in compound-treated lysates was assayed using Phospho-ERK1/2 Whole Cell Lysate kits (Meso Scale Discovery K151DWD) according to the manufacturer's protocol. Assay plates were read on a Meso Scale Discovery Sector Imager 6000, and data were analyzed using a 4-parameter logistic model to calculate IC50 values.

[3] = target: GDP-bound KRAS protein (aa 1-169), containing both G12D and C118A amino acid substitutions (Homo sapiens, UniProt P01116, C118A/G12D); assay: KRAS G12D Coupled Nucleotide Exchange Assay; assay type: biochemical; settings: 2 h compound pre-incubation; SOS-mediated nucleotide exchange, cRAF AlphaScreen readout;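 note: IC50 obtained by fitting the AlphaScreen signal with a four-parameter logistic curve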
Sequence of GDP-bound KRAS protein (aa 1-169), containing both G12D and C118A amino acid substitutions (P01116 1-169 isoform P01116-2 G12D/C118A): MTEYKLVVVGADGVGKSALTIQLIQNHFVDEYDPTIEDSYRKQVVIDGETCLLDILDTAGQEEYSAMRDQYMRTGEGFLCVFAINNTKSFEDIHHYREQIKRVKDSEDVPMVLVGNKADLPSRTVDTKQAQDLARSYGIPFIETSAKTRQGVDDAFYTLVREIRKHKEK

SMILES	pIC50 [1]	pIC50 ([2]; Homo sapiens, A-427, 2 h)	Avg 2 h Coupled Exchange IC50 [3] [nM]	pIC50 [2]
Nc1nc2c(-c3cc4nc(OC[C@@]56CCCN5C[C@H](F)C6)nc(N5[C@@H]6CC[C@H]5CNC6)c4cc3F)ccc(F)c2s1 [Example 138, 4-(4-((1R,5S)-3,8-diazabicyclo[3.2.1]octan-8-yl)-6-fluoro-2-(((2R,7aS)-2-fluorotetrahydro-1H-pyrrolizin-7a(5H)-yl)methoxy)quinazolin-7-yl)-7-fluorobenzo[d]thiazol-2-amine]	7.52	5.77	11	–
C=Cc1cc2c(N3C[C@H]4CC[C@@H](C3)N4)nc(OC[C@@]34CCCN3C[C@H](F)C4)nc2c(F)c1-c1ccc(F)c2sc(N)nc12 [Example 150, 4-(4-((1R,5S)-3,8-diazabicyclo[3.2.1]octan-3-yl)-8-fluoro-2-(((2R,7aS)-2-fluorotetrahydro-1H-pyrrolizin-7a(5H)-yl)methoxy)-6-vinylquinazolin-7-yl)-7-fluorobenzo[d]thiazol-2-amine]	8.52	7.96	6	–
Nc1nc2c(-c3cc4nc(OC[C@@]56CCCN5C[C@H](F)C6)nc(N5C[C@H]6CC[C@@H](C5)N6)c4cc3F)ccc(F)c2s1 [Example 132, 4-(4-((1R,5S)-3,8-diazabicyclo[3.2.1]octan-3-yl)-6-fluoro-2-(((2R,7aS)-2-fluorotetrahydro-1H-pyrrolizin-7a(5H)-yl)methoxy)quinazolin-7-yl)-7-fluorobenzo[d]thiazol-2-amine]	8.52	6.36	4	–
CN1CCC[C@H]1COc1nc(N2CCNC3CC32)c2cc(Cl)c(-c3cccc4sc(N)nc34)c(F)c2n1 (stereo partly drawn) [Example 20, 4-(4-(2,5-diazabicyclo[4.1.0]heptan-2-yl)-6-chloro-8-fluoro-2-(((S)-1-methylpyrrolidin-2-yl)methoxy)quinazolin-7-yl)benzo[d]thiazol-2-amine]	6.77	5.60	63	–
C=Cc1cc2c(N3CCNCC3)nc(OC[C@@H]3CCCN3C)nc2c(F)c1-c1cccc2sc(N)nc12 [Example 149, 4-(8-fluoro-2-(((S)-1-methylpyrrolidin-2-yl)methoxy)-4-(piperazin-1-yl)-6-vinylquinazolin-7-yl)benzo[d]thiazol-2-amine]	6.92	5.16	25	–
Nc1nc2c(-c3ccc4c(N5C[C@H]6CC[C@@H](C5)N6)nc(OC[C@@]56CCCN5C[C@H](F)C6)nc4c3)ccc(F)c2s1 [Example 133, 4-(4-((1R,5S)-3,8-diazabicyclo[3.2.1]octan-3-yl)-2-(((2R,7aS)-2-fluorotetrahydro-1H-pyrrolizin-7a(5H)-yl)methoxy)quinazolin-7-yl)-7-fluorobenzo[d]thiazol-2-amine]	7.13	5.35	6	–
Nc1nc2c(-c3c(Cl)cc4c(N5C[C@H]6CC[C@@H](C5)N6)cc(OC[C@@]56CCCN5C[C@H](F)C6)nc4c3F)ccc(F)c2s1 [Example 161, 4-(4-((1R,5S)-3,8-Diazabicyclo[3.2.1]octan-3-yl)-6-chloro-8-fluoro-2-(((2R,7aS)-2-fluorotetrahydro-1H-pyrrolizin-7a(5H)-yl)methoxy)quinolin-7-yl)-7-fluorobenzo[d]thiazol-2-amine]	7.24	5.24	24	–
CN1CCC[C@H]1COc1nc(N2C3CNCC2C3)c2cc(Cl)c(-c3cccc4sc(N)nc34)c(F)c2n1 [Example 18, 4-(4-(3,6-diazabicyclo[3.1.1]heptan-6-yl)-6-chloro-8-fluoro-2-(((S)-1-methylpyrrolidin-2-yl)methoxy)quinazolin-7-yl)benzo[d]thiazol-2-amine]	6.80	< 4.60	49	–
Nc1nc2c(-c3c(Cl)cc4c(N5C6CCNCC5CC6)nc(OC[C@@]56CCCN5C[C@H](F)C6)nc4c3F)ccc(F)c2s1 (single isomer, unassigned) [Example 33]	7.20	–	10	6.06
CN1CCC[C@H]1COc1nc(N2C[C@@H]3CC[C@H]2CN3)c2cc(Cl)c(-c3cccc4sc(N)nc34)c(F)c2n1 [Example 15, 4-(4-((15,4S)-2,5-diazabicyclo[2.2.2]octan-2-yl)-6-chloro-8-fluoro-2-(((S)-1-methylpyrrolidin-2-yl)methoxy)quinazolin-7-yl)benzo[d]thiazol-2-amine]	7.68	5.64	14	–
C[C@H]1CNCCN1c1nc(OC[C@@H]2CCCN2C)nc2c(F)c(-c3cccc4sc(N)nc34)c(Cl)cc12 [Example 16, 4-(6-chloro-8-fluoro-4-((S)-2-methylpiperazin-1-yl)-2-(((S)-1-methylpyrrolidin-2-yl)methoxy)quinazolin-7-yl)benzo[d]thiazol-2-amine]	7.00	5.37	23	–
CN1CCC[C@H]1CCOc1nc(N2C[C@H]3C[C@@H](C2)N3)c2cc(Cl)c(-c3ccc(F)c4sc(N)nc34)c(F)c2n1 [Example 11, 4-(4-((1R,5S)-3,6-diazabicyclo[3.1.1]heptan-3-yl)-6-chloro-8-fluoro-2-(2-((S)-1-methylpyrrolidin-2-yl)ethoxy)quinazolin-7-yl)-7-fluorobenzo[d] thiazol-2-amine]	7.54	5.08	11	–
Nc1nc2c(-c3c(Cl)cc4c(N5CC6CCC(C5)NC6)nc(OC[C@@]56CCCN5C[C@H](F)C6)nc4c3F)ccc(F)c2s1 (stereo partly drawn) [Example 31, 4-(4-(3,6-diazabicyclo[3.2.2]nonan-3-yl)-6-chloro-8-fluoro-2-(((2R,7aS)-2-fluorotetrahydro-1H-pyrrolizin-7a(5H)-yl)methoxy)quinazolin-7-yl)-7-fluorobenzo[d] thiazol-2-amine]	8.22	5.99	5	–
Nc1nc2c(-c3c(Cl)cc4c(N5[C@@H]6CNC[C@H]5COC6)nc(OC[C@]56CCCN5C[C@H](F)C6)nc4c3F)ccc(F)c2s1 [Example 124, 4-(4-((1R,5S)-3-oxa-7,9-diazabicyclo[3.3.1]nonan-9-yl)-6-chloro-8-fluoro-2-(((2R,7aR)-2-fluorotetrahydro-1H-pyrrolizin-7a(5H)-yl)methoxy)quinazolin-7-yl)-7-fluorobenzo[d]thiazol-2-amine]	8.15	6.54	6	–
Nc1nc2c(-c3c(Cl)cc4c(N5CCNCC5)nc(OC[C@]56CCCN5[C@@H](CO)CC6)nc4c3F)cccc2s1 [Example 50, ((3R,7aR)-7a-(((7-(2-aminobenzo[d]thiazol-4-yl)-6-chloro-8-fluoro-4-(piperazin-1-yl)quinazolin-2-yl)oxy)methyl)hexahydro-1H-pyrrolizin-3-yl)methanol]	7.26	4.69	42	–
Nc1nc2c(-c3c(Cl)cc4c(N5[C@@H]6CNC[C@H]5COC6)nc(OCC56CCCN5CC(F)(F)C6)nc4c3F)ccc(F)c2s1 (stereo partly drawn) [Example 126, 4-(4-((1R,5S)-3-oxa-7,9-diazabicyclo[3.3.1]nonan-9-yl)-6-chloro-2-((2,2-difluorotetrahydro-1H-pyrrolizin-7a(5H)-yl)methoxy)-8-fluoroquinazolin-7-yl)-7-fluorobenzo[d]thiazol-2-amine]	7.92	6.05	10	–
